Experimental data reported in ChEMBL document CHEMBL4825755 (J Med Chem, 2021).

Key:
[1] = target: PI3-kinase p110-delta/p85-alpha (Homo sapiens, UniProt O00329); experiment: Inhibition of recombinant human N-terminal His6-tagged full length P110delta/full length untagged human p85alpha expressed in baculovirus infected Sf21 insect cells using PIP2 as substrate preincubated for 15 mins followed by substrate addition and measured after 60 mins by HTRF assay
[2] = Lipophilicity, log D of compound by chromatographic method; assay type: physicochemical
PI3K p110 beta/p85 alpha = PI3K p110 beta/p85 alpha (Homo sapiens, UniProt P42338); experiment: Inhibition of recombinant human N-terminal His6-tagged full length P110beta/full length untagged human p85alpha expressed in baculovirus infected Sf21 insect cells using PIP2 as substrate preincubated for 15 mins followed by substrate addition and measured after 60 mins by HTRF assay
[3] = Intrinsic clearance in Wistar Han rat liver microsomes at 0.5 uM measured up to 45 mins in presence of NADPH by LC-MS/MS analysis; assay type: ADME, Microsome; details: read-out: CLH
in vitro = details: human, pooled liver microsomes
Description: Intrinsic clearance in pooled human liver microsomes at 0.5 uM measured up to 45 mins in presence of NADPH by LC-MS/MS analysis

[4] = target: Phosphatidylinositol 4,5-bisphosphate 3-kinase catalytic subunit gamma isoform (Homo sapiens, UniProt P48736); experiment: Inhibition of recombinant human N-terminal His6-tagged full length P120gamma expressed in baculovirus infected Sf21 insect cells using PIP2 as substrate preincubated for 15 mins followed by substrate addition and measured after 60 mins by HTRF assay
[5] = target: PI3-kinase p110-alpha/p85-alpha (Homo sapiens, UniProt P42336); experiment: Inhibition of recombinant human N-terminal His6-tagged full length P110alpha/full length untagged human p85alpha expressed in baculovirus infected Sf21 insect cells using PIP2 as substrate preincubated for 15 mins followed by substrate addition and measured after 60 mins by HTRF assay
[6] = target: T1, Phosphatidylinositol 4,5-bisphosphate 3-kinase catalytic subunit delta isoform (Homo sapiens, UniProt O00329); experiment: Inhibition of PI3Kdelta in human whole blood assessed as reduction in cytostim-stimulated IFNgamma production preincubated for 1 hr followed by cytostim stimulation and measured after 20 hrs by electrochemiluminescence assay
T1 sequence (O00329 whole entry): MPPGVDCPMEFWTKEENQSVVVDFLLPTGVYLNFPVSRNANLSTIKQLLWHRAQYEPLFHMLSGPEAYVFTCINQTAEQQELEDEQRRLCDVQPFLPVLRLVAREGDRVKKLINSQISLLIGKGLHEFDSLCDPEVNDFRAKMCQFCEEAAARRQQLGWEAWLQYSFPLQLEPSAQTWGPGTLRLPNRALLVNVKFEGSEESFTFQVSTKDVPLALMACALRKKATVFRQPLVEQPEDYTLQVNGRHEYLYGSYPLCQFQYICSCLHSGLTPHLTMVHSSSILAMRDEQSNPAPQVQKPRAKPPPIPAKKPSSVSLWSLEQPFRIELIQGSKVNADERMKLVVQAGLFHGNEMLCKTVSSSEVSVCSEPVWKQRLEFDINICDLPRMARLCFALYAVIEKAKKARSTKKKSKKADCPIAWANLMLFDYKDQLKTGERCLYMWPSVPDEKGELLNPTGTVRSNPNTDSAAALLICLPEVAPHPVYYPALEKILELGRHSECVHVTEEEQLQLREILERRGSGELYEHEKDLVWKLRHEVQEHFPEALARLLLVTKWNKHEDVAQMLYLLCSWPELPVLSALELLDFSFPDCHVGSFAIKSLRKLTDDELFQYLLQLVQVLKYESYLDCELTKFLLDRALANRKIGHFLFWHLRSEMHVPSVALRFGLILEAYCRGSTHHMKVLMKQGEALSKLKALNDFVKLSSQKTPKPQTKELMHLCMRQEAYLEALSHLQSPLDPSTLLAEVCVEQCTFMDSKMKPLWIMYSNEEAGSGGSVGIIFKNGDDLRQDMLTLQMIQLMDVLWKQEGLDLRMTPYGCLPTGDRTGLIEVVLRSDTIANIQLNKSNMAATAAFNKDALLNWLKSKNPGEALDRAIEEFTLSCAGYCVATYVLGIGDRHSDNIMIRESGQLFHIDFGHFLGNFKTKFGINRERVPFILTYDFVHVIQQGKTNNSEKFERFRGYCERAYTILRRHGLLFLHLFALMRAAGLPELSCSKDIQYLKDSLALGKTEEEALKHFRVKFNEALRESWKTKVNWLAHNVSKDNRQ

PI3K p110 beta/p85 alpha, sequence (P27986 whole entry): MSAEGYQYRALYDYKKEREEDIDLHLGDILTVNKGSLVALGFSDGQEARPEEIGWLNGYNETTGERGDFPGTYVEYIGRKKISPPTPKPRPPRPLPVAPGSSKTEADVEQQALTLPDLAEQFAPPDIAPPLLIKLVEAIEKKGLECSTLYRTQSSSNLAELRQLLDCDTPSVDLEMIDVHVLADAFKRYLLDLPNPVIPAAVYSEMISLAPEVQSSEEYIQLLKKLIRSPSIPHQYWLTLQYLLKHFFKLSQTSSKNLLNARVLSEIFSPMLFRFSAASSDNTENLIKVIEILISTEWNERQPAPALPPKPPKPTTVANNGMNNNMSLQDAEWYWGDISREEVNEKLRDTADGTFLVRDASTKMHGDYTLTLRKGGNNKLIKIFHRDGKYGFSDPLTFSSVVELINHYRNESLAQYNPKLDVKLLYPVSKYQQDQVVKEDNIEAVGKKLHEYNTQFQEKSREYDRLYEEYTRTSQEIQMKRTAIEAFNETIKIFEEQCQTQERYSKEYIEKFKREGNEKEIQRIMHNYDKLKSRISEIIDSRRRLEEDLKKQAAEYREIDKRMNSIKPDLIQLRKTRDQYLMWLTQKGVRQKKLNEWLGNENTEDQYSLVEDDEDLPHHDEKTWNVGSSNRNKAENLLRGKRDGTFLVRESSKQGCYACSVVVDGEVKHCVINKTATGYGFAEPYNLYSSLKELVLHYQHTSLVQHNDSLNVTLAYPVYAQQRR
PI3K p110 beta/p85 alpha, sequence (P42338 whole entry): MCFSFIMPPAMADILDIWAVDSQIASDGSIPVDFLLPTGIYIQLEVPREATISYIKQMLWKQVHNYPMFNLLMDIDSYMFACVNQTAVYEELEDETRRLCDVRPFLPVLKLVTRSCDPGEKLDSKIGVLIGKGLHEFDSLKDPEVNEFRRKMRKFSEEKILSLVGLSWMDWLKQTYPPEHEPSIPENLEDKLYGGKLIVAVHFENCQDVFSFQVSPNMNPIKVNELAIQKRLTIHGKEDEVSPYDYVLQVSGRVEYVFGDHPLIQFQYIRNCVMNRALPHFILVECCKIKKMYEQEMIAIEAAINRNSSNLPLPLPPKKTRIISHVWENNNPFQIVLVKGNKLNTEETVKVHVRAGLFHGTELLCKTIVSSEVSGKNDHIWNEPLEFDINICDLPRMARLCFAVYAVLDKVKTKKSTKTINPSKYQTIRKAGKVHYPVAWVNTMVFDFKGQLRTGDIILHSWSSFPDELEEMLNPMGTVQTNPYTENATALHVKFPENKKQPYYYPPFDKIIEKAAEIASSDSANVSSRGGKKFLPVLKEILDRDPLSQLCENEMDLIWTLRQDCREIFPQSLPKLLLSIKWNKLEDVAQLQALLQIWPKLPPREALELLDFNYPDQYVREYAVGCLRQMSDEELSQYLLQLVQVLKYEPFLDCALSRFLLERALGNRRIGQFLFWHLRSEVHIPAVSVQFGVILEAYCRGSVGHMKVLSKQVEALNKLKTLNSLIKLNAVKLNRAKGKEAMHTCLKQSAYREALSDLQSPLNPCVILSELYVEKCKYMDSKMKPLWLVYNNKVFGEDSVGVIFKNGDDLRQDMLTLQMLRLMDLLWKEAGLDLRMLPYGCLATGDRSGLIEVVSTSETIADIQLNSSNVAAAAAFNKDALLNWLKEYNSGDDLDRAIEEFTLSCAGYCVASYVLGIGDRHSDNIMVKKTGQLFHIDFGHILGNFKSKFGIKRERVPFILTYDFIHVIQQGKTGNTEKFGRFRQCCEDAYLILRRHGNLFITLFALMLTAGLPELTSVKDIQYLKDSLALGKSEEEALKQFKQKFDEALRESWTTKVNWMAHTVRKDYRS
PI3-kinase p110-delta/p85-alpha, sequence (P27986 whole entry, one chain of several): as the sequence (P27986 whole entry) above
PI3-kinase p110-alpha/p85-alpha, sequence (P27986 whole entry, canonical isoform): as the sequence (P27986 whole entry) above
PI3-kinase p110-alpha/p85-alpha, sequence (P42336 whole entry, canonical isoform): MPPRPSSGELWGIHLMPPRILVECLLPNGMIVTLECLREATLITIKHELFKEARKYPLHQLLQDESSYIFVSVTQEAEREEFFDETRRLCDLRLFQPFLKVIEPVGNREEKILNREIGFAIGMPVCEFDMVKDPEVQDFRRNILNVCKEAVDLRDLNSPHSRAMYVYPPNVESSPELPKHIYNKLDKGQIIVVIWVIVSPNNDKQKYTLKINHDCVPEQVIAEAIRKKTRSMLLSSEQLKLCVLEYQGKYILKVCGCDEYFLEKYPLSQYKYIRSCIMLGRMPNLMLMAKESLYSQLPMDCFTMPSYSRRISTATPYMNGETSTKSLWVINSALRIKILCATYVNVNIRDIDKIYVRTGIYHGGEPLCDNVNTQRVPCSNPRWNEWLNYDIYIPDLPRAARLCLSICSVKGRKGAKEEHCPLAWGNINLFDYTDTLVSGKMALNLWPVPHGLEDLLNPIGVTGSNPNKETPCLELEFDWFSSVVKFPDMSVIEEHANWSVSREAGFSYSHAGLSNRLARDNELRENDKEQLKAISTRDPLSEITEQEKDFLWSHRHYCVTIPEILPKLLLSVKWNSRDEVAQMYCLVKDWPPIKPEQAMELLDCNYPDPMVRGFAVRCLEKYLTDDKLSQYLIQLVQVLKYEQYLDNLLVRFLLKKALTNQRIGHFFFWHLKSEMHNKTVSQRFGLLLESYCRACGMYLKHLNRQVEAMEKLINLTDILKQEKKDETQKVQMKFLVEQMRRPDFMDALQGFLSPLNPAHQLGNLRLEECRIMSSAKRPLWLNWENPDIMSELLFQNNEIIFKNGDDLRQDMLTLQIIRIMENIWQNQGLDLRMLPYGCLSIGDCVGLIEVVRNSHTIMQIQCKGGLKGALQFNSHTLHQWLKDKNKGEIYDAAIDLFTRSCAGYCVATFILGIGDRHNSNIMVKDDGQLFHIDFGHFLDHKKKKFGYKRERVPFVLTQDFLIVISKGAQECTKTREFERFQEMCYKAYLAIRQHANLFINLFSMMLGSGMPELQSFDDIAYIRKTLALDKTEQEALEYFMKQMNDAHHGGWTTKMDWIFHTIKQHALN
Phosphatidylinositol 4,5-bisphosphate 3-kinase catalytic subunit gamma isoform, sequence (P48736 whole entry, canonical isoform): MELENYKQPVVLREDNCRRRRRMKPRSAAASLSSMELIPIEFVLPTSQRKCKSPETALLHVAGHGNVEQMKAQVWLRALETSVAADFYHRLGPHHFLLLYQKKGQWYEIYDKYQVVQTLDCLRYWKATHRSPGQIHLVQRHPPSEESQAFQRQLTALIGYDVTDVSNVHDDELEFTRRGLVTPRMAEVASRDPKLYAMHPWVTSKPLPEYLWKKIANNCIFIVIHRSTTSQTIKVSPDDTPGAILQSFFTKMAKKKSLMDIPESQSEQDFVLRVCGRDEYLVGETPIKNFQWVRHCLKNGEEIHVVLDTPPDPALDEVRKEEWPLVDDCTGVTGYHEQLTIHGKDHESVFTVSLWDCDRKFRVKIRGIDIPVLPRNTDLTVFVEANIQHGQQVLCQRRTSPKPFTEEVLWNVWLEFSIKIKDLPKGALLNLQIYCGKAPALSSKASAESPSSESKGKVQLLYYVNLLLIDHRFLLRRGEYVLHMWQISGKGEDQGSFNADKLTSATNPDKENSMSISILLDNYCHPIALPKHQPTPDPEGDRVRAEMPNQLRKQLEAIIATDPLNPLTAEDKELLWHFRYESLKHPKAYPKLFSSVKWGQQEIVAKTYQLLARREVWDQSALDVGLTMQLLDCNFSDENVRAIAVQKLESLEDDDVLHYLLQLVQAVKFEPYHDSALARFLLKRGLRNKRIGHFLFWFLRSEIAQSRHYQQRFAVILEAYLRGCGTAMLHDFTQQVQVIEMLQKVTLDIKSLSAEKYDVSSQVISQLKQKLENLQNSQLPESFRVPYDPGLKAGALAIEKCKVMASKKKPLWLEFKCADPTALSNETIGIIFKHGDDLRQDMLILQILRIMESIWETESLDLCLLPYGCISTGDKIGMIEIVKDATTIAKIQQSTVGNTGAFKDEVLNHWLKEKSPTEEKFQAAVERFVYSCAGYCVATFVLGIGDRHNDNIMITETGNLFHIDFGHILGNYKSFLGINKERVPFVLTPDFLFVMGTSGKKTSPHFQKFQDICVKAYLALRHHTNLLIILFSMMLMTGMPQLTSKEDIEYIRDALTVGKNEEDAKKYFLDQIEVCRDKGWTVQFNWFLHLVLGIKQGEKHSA

| Structure (SMILES) | IC50 [1] [nM] | Ki [1] [nM] | chromatographic logD [2] | IC50 (PI3K p110 beta/p85 alpha) [nM] | CLint scaled at 0.5 µM [3] [mL/min/kg] | CLint scaled at 0.75 h, 0.5 µM (in vitro) [mL/min/kg] | IC50 [4] [nM] | IC50 [5] [nM] | IC50 [6] [nM] | pIC50 ([4]; sf21) |
| --- | --- | --- | --- | --- | --- | --- | --- | --- | --- | --- |
| COc1ncc(C2=CCOCC2)cc1S(=O)(=O)Nc1cncc(-c2ccc(CN3C[C@@H](C)O[C@@H](C)C3)cc2)c1 | 0.398 | 0.01 | 5.3 | 631 | 18.9 | 12.9 | 794 | 1000 | 25.1 | – |
| COc1ncc(N2CCOCC2)cc1S(=O)(=O)Nc1ccnc(-c2ccc(CN3CCN(C(C)C)CC3)c(F)c2F)c1 [listing 1 of 2 here] | 1.58 | 0.0631 | 2.2 | 5010 | < 0.46 | 0.47 | – | 1260 | 3.16 | – |
| COc1ncc(C2=CCOCC2)cc1S(=O)(=O)Nc1cncc(-c2ccc(CN3C[C@@H](C)N(C)[C@@H](C)C3)cc2)c1 | 0.501 | 0.0158 | 3.1 | 2510 | 0.87 | 3.04 | 5010 | 316 | 1.26 | – |
| COc1ncc(N2CCOCC2)cc1S(=O)(=O)Nc1ccnc(-c2ccc(CN3CCN(C(C)(C)C)CC3)cc2)c1 | – | – | – | 6310 | – | – | 3980 | 1580 | – | – |
| COc1ncc(N2CCOCC2)cc1S(=O)(=O)Nc1cncc(-c2ccc(CN3CCN(C(C)C)CC3)cc2)c1 | 2.51 | 0.0794 | 2.3 | 2510 | < 0.46 | 0.71 | 7940 | 1260 | 20 | – |
| COc1ncc(N2CCOCC2)cc1S(=O)(=O)Nc1ccnc(-c2ccc(CN3CCN(C(C)C)CC3)c(F)c2F)c1 [listing 2 of 2 here] | – | – | – | – | – | – | 2000 | – | – | – |
| COc1ncc(N2CCOCC2)cc1S(=O)(=O)Nc1ccnc(-c2ccc(CN3CCC(C(C)(C)O)CC3)cc2F)c1 | 1.58 | 0.0501 | 2.1 | 2510 | < 0.46 | < 0.4 | 3160 | 2510 | 10 | – |
| COc1ncc(C2=CCOCC2)cc1S(=O)(=O)Nc1cncc(-c2cccc(CN3CCCCC3)c2)c1 | 5.01 | – | 3.5 | 1260 | 3.98 | 1.88 | 6310 | 5010 | 79.4 | – |
| COc1ncc(N2CCOCC2)cc1S(=O)(=O)Nc1ccnc(-c2ccc(CN3CCN(C(C)(C)C)CC3)cc2F)c1 | 0.794 | 0.0251 | 1.9 | 3980 | < 0.37 | < 0.31 | 2000 | 794 | 2.51 | – |
| COc1ncc(N2CCOCC2)cc1S(=O)(=O)Nc1cncc(-c2ccc(CN3CCCC3)cc2)c1 | – | – | – | – | – | – | 10000 | – | – | – |
| COc1ncc(N2CCOCC2)cc1S(=O)(=O)Nc1cncc(C#CCN2CCN(C(C)C)CC2)c1 | 31.6 | – | 1.6 | 15800 | < 0.46 | < 0.4 | – | 20000 | 158 | > 4.5 |
| COc1ncc(C2=CCOCC2)cc1S(=O)(=O)Nc1cncc(-c2ccc(CN3CCCC3)cc2)c1 | 5.01 | – | 2.2 | 631 | 0.88 | 0.72 | 10000 | 5010 | 31.6 | – |
| COc1ncc(C2=CCOCC2)cc1S(=O)(=O)Nc1cncc(-c2ccc(CN3CCN(C(C)C)CC3)nc2)c1 | 1.26 | 0.0251 | 1.8 | 3980 | < 0.46 | 0.43 | 5010 | 1260 | 31.6 | – |
